Experimental data taken from patent publication US9526717B2, “Composition for treating immune diseases containing daurinol compound as active ingredient” (THE CATHOLIC UNIVERSITY OF KOREA INDUSTRY-ACADEMIC …, priority 2013, dated 2016).

Key:
[1] = system: phospho STAT3 (p705, p′727); assay: Western blot of phospho STAT3 in CD4+T cells; assay type: cell-based; details: CD4+T cells of normal mouse, daurinol 5 μM, anti-CD3 0.5 μg/mL, 3 days
Description: For the observation of changes in intracellular cell signaling factors treated with daurinol, a western blot analysis was performed. For this purpose, CD4+T cells were isolated from a normal mouse, treated with daurinol (5 μM) in a condition already treated with anti-CD3 antibodies (0.5 μg/mL), cultured for 3 days, and the cells were dissolved and proteins were extracted therefrom. Then, the extracted proteins were subjected to SDS-PAGE electrophoresis, and the proteins were electrically transferred onto a nitrocellulose membrane, subjected to a blocking reaction with 5% skim milk for 1 hour, reacted by attaching primary antibodies to STAT3, STAT3p705, STAT3p727, and phospho m-TOR thereto, reacting again by attaching secondary antibodies to the same, and sensitized onto a Kodak X-ray using enhanced chemilunimoecence (ECL), and thereby the protein expression levels of the genes were analyzed.

[2] = system: animal model with inflammatory bowel disease (IBD); assay: H&E staining and TNF-α expression of large intestine tissues in IBD animal model; assay type: in vivo, mouse; details: DSS-induced IBD mice, daurinol treated
Description: For the confirmation of the effect of the daurinol compound of the present invention on the treatment of inflammatory bowel disease, the present inventors first constructed an animal model with induced inflammatory bowel disease. For the experimental model, C57BL/6(H-2kb) mice were used. For the construction of an animal model with induced inflammatory bowel disease, the mice were fed with 3.5% dextran sulfate sodium (DSS) and water for a week, thereby preparing an animal model with induced inflammatory bowel disease. The present inventors divided the experimental animals into a normal control group, a group of an animal model with induced inflammatory bowel disease, and a group of an animal model with induced inflammatory bowel disease treated with daurinol or a TNF-α inhibitor, and the group treated with daurinol was administered orally and intrarectally with daurinol (20 mg/kg) from the 4th day after the induction with the disease. Additionally, for the confirmation of the histological findings of the tissues in the large intestine and the expression of inflammatory cytokines, a hematoxylin and eosin (H&E) staining was performed to examine whether the damage of the tissues in the large intestine was reduced by the daurinol treatment.

[3] = system: splenocytes of an animal model with lupus; assay: IgG antibody formation in splenocytes of animal model with lupus (ELISA); assay type: cell-based; details: daurinol 1 μM and 5 μM, LPS 100 ng/mL, three days
Description: First, regarding the effect of controlling the autoantibody formation, the splenocytes of an animal model with lupus were treated with daurinol (1 μM and 5 μM) and LPS (100 ng/mL) for three days and the levels of IgG antibodies expressed thereof were evaluated by ELISA assay.

[4] = system: mouse with induced inflammatory bowel disease (IBD); assay: Antibodies expressed in the sera of IBD animal model; assay type: in vivo; details: IBD mice treated with daurinol
Description: (§1) For the confirmation of the effect of the daurinol compound of the present invention on the treatment of inflammatory bowel disease, the present inventors first constructed an animal model with induced inflammatory bowel disease. For the experimental model, C57BL/6(H-2kb) mice were used. For the construction of an animal model with induced inflammatory bowel disease, the mice were fed with 3.5% dextran sulfate sodium (DSS) and water for a week, thereby preparing an animal model with induced inflammatory bowel disease.
(§2) The present inventors divided the experimental animals into a normal control group, a group of an animal model with induced inflammatory bowel disease, and a group of an animal model with induced inflammatory bowel disease treated with daurinol or a TNF-α inhibitor, and the group treated with daurinol was administered orally and intrarectally with daurinol (20 mg/kg) from the 4th day after the induction with the disease.
(§3) Sera were isolated from a mouse with induced inflammatory bowel disease (IBD), and mice treated with daurinol and TNF-α inhibitor, respectively. The levels of IL-17, IFNγ, IL-6, and the like, which are inflammatory cytokines, in the isolated sera were measured by ELISA assay.
Accordingly, since daurinol can reduce not only the expression of the inflammatory cytokines but also the formation of antibodies in an animal model with inflammatory bowel disease, daurinol can inhibit and control the immune response to autoantibodies and the B cell-related inflammation responses.

splenocytes cell line = assay: MTT assay for cytotoxicity; assay type: cell-based; details: splenocytes cell line 2×10^5 cells, 96-well plate
Description: Additionally, MTT assay was performed for the observation of cytotoxicity by daurinol treatment. To this end, splenocytes cell line (2×10^5 cells) were plated on a 96-well plate, and daurinol was treated with MTT reagent and wrapped with aluminum foil, and reacted at 37° C. for 4 hours. After 4 hours, the crystals formed were dissolved in DMSO and the absorbance was measured using the ELISA reader.

[5] = system: splenocytes of an animal model with obesity arthritis; assay: Th17/Treg activity by flow cytometry in splenocytes of animal model with obesity arthritis; assay type: cell-based; details: daurinol 1 μM, anti-CD3 0.5 μg/mL, 3 days
Description: Additionally, for the confirmation of controlling the activity of Th17/Treg cells, the splenocytes of an animal model with obesity arthritis were treated with daurinol (1 μM) and anti-CD3 (0.5 μg/mL) and cultured for 3 days, and the activity of Th17/Treg cells controlled by daurinol were evaluated via flow cytometry.

VEGF = VEGF expression in human large intestine cell line HT-29; assay type: cell-based
[6] = system: splenocytes of the animal model with lupus; assay: IL-17 level in splenocytes of animal model with lupus (ELISA); assay type: cell-based; details: daurinol 1 μM and 5 μM, anti-CD3 0.5 μg/mL or LPS 100 ng/mL, three days
Description: Additionally, for the confirmation of the effect of controlling the formation of inflammatory cytokines, the splenocytes of the animal model with lupus were treated with daurinol (1 μM and 5 μM) and anti-CD3 (0.5 μg/mL) or LPS (100 ng/mL) for three days and the levels of IL-17 and TNF-α inflammatory cytokines were evaluated by ELISA assay.

[7] = system: mouse with induced inflammatory bowel disease (IBD); assay: Inflammatory cytokines in the serum of IBD animal model (ELISA); assay type: in vivo; details: IBD mice treated with daurinol
Description: as §1, §2, §3

splenocyte cell line = assay: TNF-α secretion of LPS treated splenocyte cell line (sandwich ELISA); assay type: cell-based; details: 20 μM daurinol; LPS 100 ng/mL
Description: For this purpose, a splenocyte cell line was treated with anti-CD3 antibodies (0.5 μg/mL) to induce the secretion of IL-17, or treated with LPS (100 ng/mL) to induce the secretion of TNF-α. Then, the splenocyte cell line was treated with daurinol at concentrations of 0.5 μM, 2.5 μM, and 20 μM, and the supernatants were combined and the amount of IL-17 and TNF-α were examined by sandwich ELISA assay. The resultant was reacted in a 96-well plate with monoclonal anti-IL-17 or anti-TNF-α (2 μg/mL) at 4° C. overnight, and upon reaction, the non-specific binding was blocked using a blocking solution (1% BSA/PBST). IL-17 recombinant or TNF-α in a half amount was continuously diluted and used as standards, and the supernatant of cell culture was reacted at room temperature for 2 hours. Then, the biotinylated anti-IL-17 was reacted at room temperature for 2 hours, washed 4 times, and added with ExtraAvidin-alkaline phosphatase conjugate after dilution, and reacted at room temperature for 2 hours. Subsequently, PNPP/DEA solution was added thereto to fix color and absorbance was measured at 405 nm.

COc1cc2c(-c3ccc4c(c3)OCO4)c3c(cc2cc1O)COC3=O [daurinol]
expression of phospho STAT3 (p705, p′727) [1]: significant decrease | damage of the tissues in the large intestine (H&E staining) [2]: decrease in the intestinal tissue damage | expression of TNF-α in large intestine tissues [2]: significantly inhibits | formation of IgG antibodies (ELISA) [3]: inhibited the formation of IgG antibodies in a dose-dependent manner | level of IgG1 antibodies in sera [4]: reduced the levels | level of IgG2 antibodies in sera [4]: reduced the levels | level of IgG3 antibodies in sera [4]: reduced the levels | level of IgG antibodies in sera [4]: reduced the levels | cytotoxicity according to the concentration of daurinol (MTT) (splenocytes cell line): no significant cytotoxicity | activity of Foxp3+ Treg cells (flow cytometry) [5]: induced the activity of Foxp3+ Treg cells | expression of IL-17 (Th17, flow cytometry) [5]: significantly inhibited the expression of IL-17 | activity of VEGF, analysis in terms of inhibition (%) (VEGF): significantly inhibits the activity of VEGF | inhibitory effect against the VEGF expression, compared to comparators (VEGF): greater inhibitory effect against the VEGF expression compared to those of TNF-α inhibitor and merformin | expression of IL-17 (ELISA) [6]: inhibited the expression of IL-17 and TNF-α in a dose-dependent manner | level of IFNγ in serum (ELISA) [7]: significantly inhibits | level of IL-6 in serum (ELISA) [7]: significantly inhibits | level of IL-17 in serum (ELISA) [7]: significantly inhibits | secretion of TNF-α decreased by (splenocyte cell line): about 40%
